Experimental data: ChEMBL document CHEMBL5325497, “Facilitated Drug Repurposing with Artemisinin-Derived PROTACs: Unveiling PCLAF as a Therapeutic Target” (J Med Chem, 2023)
pIC50, pKd: −log10 of the molar value. Calls of active or inactive are those of the source. No cut-off for these calls is given here.

What was measured:
RS4-11 [1] = assay: Antiproliferative activity against human RS4-11 cells assessed as cell growth inhibition incubated for 48 hrs by CCK8 colorimetric assay; assay type: functional, cell-based; settings: RS4-11, 48 h
RPMI-8226 = assay: Antiproliferative activity against human RPMI-8226 cells assessed as cell growth inhibition incubated for 48 hrs by CCK8 colorimetric assay; assay type: functional, cell-based; settings: RPMI-8226, 48 h
PCNA-associated factor = target: T1, PCNA-associated factor (Homo sapiens, UniProt Q15004); assay: Binding affinity to PCLAF (unknown origin) assessed as equilibrium dissociation constant by SPR assay
T1 sequence (Q15004 whole entry): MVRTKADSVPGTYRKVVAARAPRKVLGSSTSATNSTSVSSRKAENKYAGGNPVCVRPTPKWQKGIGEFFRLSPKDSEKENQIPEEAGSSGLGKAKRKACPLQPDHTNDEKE

U-266 = assay: Antiproliferative activity against human U266B1 cells assessed as cell growth inhibition incubated for 48 hrs by CCK8 colorimetric assay; assay type: functional, cell-based; settings: U-266, 48 h
[2] = target: T2, Protein cereblon/PCNA-associated factor (Homo sapiens, UniProt Q15004+Q96SW2); assay: PROTAC activity at CRBN/PCLAF in human RS4-11 cells assessed as degradation of PCLAF protein at 40 nM incubated for 40 mins by DARTS analysis; assay type: cell-based
Target sequence in this assay (Q96SW2 whole entry, looked up, one chain of several): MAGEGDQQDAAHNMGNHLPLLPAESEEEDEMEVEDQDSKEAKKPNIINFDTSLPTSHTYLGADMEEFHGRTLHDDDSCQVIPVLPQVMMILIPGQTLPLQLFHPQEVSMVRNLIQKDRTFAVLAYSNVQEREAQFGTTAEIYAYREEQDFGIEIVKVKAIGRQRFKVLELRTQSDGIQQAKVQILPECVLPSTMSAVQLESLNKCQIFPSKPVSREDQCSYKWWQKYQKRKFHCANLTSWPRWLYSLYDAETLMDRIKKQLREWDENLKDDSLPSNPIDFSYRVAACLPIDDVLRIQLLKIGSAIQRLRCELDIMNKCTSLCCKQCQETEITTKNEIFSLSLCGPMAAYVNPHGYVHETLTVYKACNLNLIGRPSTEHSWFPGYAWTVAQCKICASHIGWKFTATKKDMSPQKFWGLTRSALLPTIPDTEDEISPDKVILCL

[3] = target: T2, Protein cereblon/PCNA-associated factor; assay: PROTAC activity at CRBN/PCLAF in human RS4-11 cells assessed as maximal degradation of PCLAF protein at 24 hr by Western blotting analysis; assay type: cell-based
Target sequence in this assay (Q96SW2 whole entry, looked up, one chain of several): as above

[4] = Toxicity in NOD/SCID mouse xenografted with human RS4-11 cells assessed as maximum tolerated dose at IV administration for 5 consecutive days; settings: in vivo
[5] = target: T2, Protein cereblon/PCNA-associated factor; assay: PROTAC activity at CRBN/PCLAF in human RS4-11 cells assessed as degradation of PCLAF protein at 100 nM measured after 24 hr of compound washout by Western blotting analysis; assay type: cell-based
Target sequence in this assay (Q96SW2 whole entry, looked up, one chain of several): as above

[6] = target: T2, Protein cereblon/PCNA-associated factor; assay: PROTAC activity at CRBN/PCLAF in human RS4-11 cells assessed as degradation of PCLAF protein at 4 hr by Western blotting analysis; assay type: cell-based
Target sequence in this assay (Q96SW2 whole entry, looked up, one chain of several): as above

[7] = Oral bioavailability in Sprague-Dawley rat at 50 mg/kg measured upto 24 hrs by LC-MS/MS analysis; assay type: ADME, organism-based; settings: in vivo
[8] = target: T2, Protein cereblon/PCNA-associated factor; assay: PROTAC activity at CRBN/PCLAF in human RS4-11 cells assessed as degradation of PCLAF protein at 100 nM incubated for 12 hrs by Western blotting analysis; assay type: cell-based
Target sequence in this assay (Q96SW2 whole entry, looked up, one chain of several): as above

[9] = Toxicity in NOD/SCID mouse xenografted with human RS4-11 cells assessed as adverse effect at 5 mg/kg,iv qd administration for 5 consecutive days; assay type: organism-based; settings: in vivo
[10] = Toxicity in NOD/SCID mouse xenografted with human RS4-11 cells assessed as adverse effect at 1 mg/kg,iv qd administration for 5 consecutive days; assay type: organism-based; settings: in vivo
[11] = target: T2, Protein cereblon/PCNA-associated factor; assay: PROTAC activity at CRBN/PCLAF in human RS4-11 cells assessed as downregulation of Rb phosphorylation at 10 to 100 nM by Western blotting analysis; assay type: cell-based; settings: dose 10-100 nM
Target sequence in this assay (Q96SW2 whole entry, looked up, one chain of several): as above

[12] = Toxicity in NOD/SCID mouse xenografted with human RS4-11 cells assessed as change in body weight at 1 mg/kg,iv qd administration for 5 consecutive days; assay type: organism-based; settings: in vivo
[13] = Toxicity in NOD/SCID mouse xenografted with human RS4-11 cells assessed as pathological change in kidney at 25 mg/kg,iv qd administration for 5 consecutive days by hematoxylin and eosin staining based microscopic analysis; assay type: organism-based; settings: in vivo
RS4-11 [14] = assay: Antitumor activity against human RS4-11 cells xenografted in NOD/SCID mouse assessed as tumor growth inhibition at 5 mg/kg,iv administration for 5 consecutive days; assay type: functional, organism-based
RS4-11 [15] = assay: Induction of apoptosis in human RS4-11 cells assessed as increase in late apoptosis at 10 to 200 nM incubated for 48 hrs Annexin V-FITC/PI staining based flow cytometry analysis; assay type: functional, cell-based; settings: dose 10-200 nM
[16] = target: T3, PCNA-associated factor (Homo sapiens) (UniProt Q15004); assay: Binding affinity to PCLAF in human RS4-11 cells assessed as thermal stability at 100 uM incubated for 60 mins by CETSA assay; assay type: cell-based
T3 sequence (whole entry): T1 sequence (Q15004 whole entry)

RS4-11 [17] = assay: Induction of cell cycle arrest in human RS4-11 cells assessed as accumulation of cells at G1 phase incubated for 48 hrs by propidium iodide staining based flow cytometry analysis; assay type: functional
[18] = target: T2, Protein cereblon/PCNA-associated factor; assay: PROTAC activity at CRBN/PCLAF in human RS4-11 cells assessed as degradation of PCLAF protein at 100 nM incubated for 12 hrs in presence of MG132 by Western blotting analysis; assay type: cell-based
[19] = target: T2, Protein cereblon/PCNA-associated factor; assay: PROTAC activity at CRBN/PCLAF in human RS4-11 cells assessed as maximal degradation of PCLAF protein by Western blotting analysis relative to control; assay type: cell-based
[20] = target: T2, Protein cereblon/PCNA-associated factor; assay: PROTAC activity at CRBN/PCLAF in human RS4-11 cells assessed as upregulation of p21 protein at 10 to 100 nM by Western blotting analysis; assay type: cell-based; settings: dose 10-100 nM
RS4-11 [21] = assay: Induction of apoptosis in human RS4-11 cells assessed as upregulation of Bax level at 10 to 100 nM by Western blotting analysis; assay type: functional, cell-based; settings: dose 10-100 nM
[22] = Toxicity in NOD/SCID mouse xenografted with human RS4-11 cells assessed as change in body weight at 5 mg/kg,iv qd administration for 5 consecutive days; assay type: organism-based; settings: in vivo
[23] = Toxicity in NOD/SCID mouse xenografted with human RS4-11 cells assessed as change in body weight at 25 mg/kg,iv qd administration for 5 consecutive days; assay type: organism-based; settings: in vivo
[24] = target: T2, Protein cereblon/PCNA-associated factor; assay: PROTAC activity at CRBN/PCLAF in human RS4-11 cells assessed as degradation of PCLAF protein by Western blotting analysis; assay type: cell-based
Target sequence in this assay (Q96SW2 whole entry, one chain of several): as the sequence (Q96SW2 whole entry, looked up, one chain of several) above

RS4-11 [25] = assay: Induction of apoptosis in human RS4-11 cells assessed as downregulation of Bcl-2 level at 10 to 100 nM by Western blotting analysis; assay type: functional, cell-based; settings: dose 10-100 nM
[26] = target: T2, Protein cereblon/PCNA-associated factor; assay: PROTAC activity at CRBN/PCLAF in human RS4-11 cells assessed as degradation of PCLAF protein at 10 to 100 nM by Western blotting analysis; assay type: cell-based; settings: dose 10-100 nM
RS4-11 [27] = assay: Antitumor activity against human RS4-11 cells xenografted in NOD/SCID mouse assessed as increase in survival day at IV administration for 5 consecutive days; assay type: functional
[28] = Toxicity in NOD/SCID mouse xenografted with human RS4-11 cells assessed as pathological change in heart at 25 mg/kg,iv qd administration for 5 consecutive days by hematoxylin and eosin staining based microscopic analysis; assay type: organism-based; settings: in vivo
[29] = target: T2, Protein cereblon/PCNA-associated factor; assay: PROTAC activity at CRBN/PCLAF in human RS4-11 cells assessed as degradation of PCLAF protein at 100 nM incubated for 12 hrs in presence of pomalidomide by Western blotting analysis; assay type: cell-based
RS4-11 [30] = assay: Induction of apoptosis in human RS4-11 cells incubated for 48 hrs Annexin V-FITC/PI staining based flow cytometry analysis; assay type: functional, cell-based
[31] = target: T2, Protein cereblon/PCNA-associated factor; assay: PROTAC activity at CRBN/PCLAF in human RS4-11 cells assessed as degradation of PCLAF protein at 100 nM incubated for 12 hrs in presence of SM1044 by Western blotting analysis; assay type: cell-based
[32] = Toxicity in NOD/SCID mouse xenografted with human RS4-11 cells assessed as pathological change in liver at 25 mg/kg,iv qd administration for 5 consecutive days by hematoxylin and eosin staining based microscopic analysis; assay type: organism-based; settings: in vivo
RS4-11 [33] = assay: Antitumor activity against human RS4-11 cells xenografted in NOD/SCID mouse assessed as tumor growth inhibition at 1 mg/kg,iv administration for 5 consecutive days; assay type: functional, organism-based
RS4-11 [34] = assay: Induction of apoptosis in human RS4-11 cells assessed as increase in early apoptosis at 10 to 200 nM incubated for 48 hrs Annexin V-FITC/PI staining based flow cytometry analysis; assay type: functional, cell-based; settings: dose 10-200 nM

C[C@H]1[C@@H](OCCNCCO[C@H]2O[C@@H]3O[C@]4(C)CC[C@H]5[C@H](C)CC[C@@H]([C@H]2C)[C@@]35OO4)O[C@@H]2O[C@]3(C)CC[C@H]4[C@H](C)CC[C@@H]1[C@@]24OO3
pIC50 (RS4-11 [1]): 6.19 | pIC50 (RPMI-8226): < 6.00 | pKd (PCNA-associated factor): 3.74 | pIC50 (U-266): < 6.00

C[C@@H]1CCC2[C@@H](C)[C@@H](OCCN(CCO[C@H]3O[C@@H]4O[C@@]5(C)CCC6[C@H](C)CCC([C@H]3C)[C@]64OO5)C(=O)CCCCCNc3cccc4c3C(=O)N(C3CCC(=O)NC3=O)C4=O)O[C@@H]3O[C@@]4(C)CCC1[C@@]23OO4 (stereo partly drawn)
pIC50 (RS4-11 [1]): 7.01 | pIC50 (RPMI-8226): 6.83 | pIC50 (U-266): 6.27

C[C@@H]1CCC2[C@@H](C)[C@@H](OCCN(CCO[C@H]3O[C@@H]4O[C@@]5(C)CCC6[C@H](C)CCC([C@H]3C)[C@]64OO5)C(=O)CCCCNc3cccc4c3C(=O)N(C3CCC(=O)NC3=O)C4=O)O[C@@H]3O[C@@]4(C)CCC1[C@@]23OO4 (stereo partly drawn)
pIC50 (RS4-11 [1]): 6.61 | pIC50 (RPMI-8226): < 6.00 | pIC50 (U-266): < 6.00

C[C@@H]1CCC2[C@@H](C)[C@@H](OCCN(CCO[C@H]3O[C@@H]4O[C@@]5(C)CCC6[C@H](C)CCC([C@H]3C)[C@]64OO5)C(=O)CCCCCCNc3cccc4c3C(=O)N(C3CCC(=O)NC3=O)C4=O)O[C@@H]3O[C@@]4(C)CCC1[C@@]23OO4 (stereo partly drawn)
pIC50 (RS4-11 [1]): 7.10 | pIC50 (RPMI-8226): 6.98 | pIC50 (U-266): 6.58

C[C@@H]1CCC2[C@@H](C)[C@@H](OCCN(CCO[C@H]3O[C@@H]4O[C@@]5(C)CCC6[C@H](C)CCC([C@H]3C)[C@]64OO5)C(=O)CCCCCCCCNc3cccc4c3C(=O)N(C3CCC(=O)NC3=O)C4=O)O[C@@H]3O[C@@]4(C)CCC1[C@@]23OO4 (stereo partly drawn)
pIC50 (RS4-11 [1]): 7.14 | pIC50 (RPMI-8226): 6.49 | pIC50 (U-266): 6.39

C[C@@H]1CCC2[C@@H](C)[C@@H](OCCN(CCO[C@H]3O[C@@H]4O[C@@]5(C)CCC6[C@H](C)CCC([C@H]3C)[C@]64OO5)C(=O)CCCCCCCNc3cccc4c3C(=O)N(C3CCC(=O)NC3=O)C4=O)O[C@@H]3O[C@@]4(C)CCC1[C@@]23OO4 (stereo partly drawn)
Activity [2]: inactive | Activity [3]: Active | pIC50 (RS4-11 [1]): 7.30 | MTD at 5 days [4]: 25 mg/kg | pIC50 (RPMI-8226): 6.63 | Activity [5]: inactive | Activity [6]: Active | bioavailability [7]: 24% | Activity [8]: Active | pKd (PCNA-associated factor): 5.21 | pIC50 (U-266): 6.46 | Activity [9]: Non-Toxic | Activity [10]: Non-Toxic | Activity [11]: Active | Activity [12]: Non-Toxic | Activity [13]: Non-Toxic | Activity (RS4-11 [14]): Active | Activity (RS4-11 [15]): Active | Activity [16]: Active | Activity (RS4-11 [17]): Dose-Dependent Effect | Activity [18]: inactive | Emax [19]: 95% | Activity [20]: Active | Activity (RS4-11 [21]): Active | Activity [22]: Non-Toxic | Activity [23]: Non-Toxic | DC50 [24]: 54.9 nM | Activity (RS4-11 [25]): Active | Activity [26]: Active | Activity (RS4-11 [27]): Dose-Dependent Effect | Activity [28]: Non-Toxic | Activity [29]: inactive | Activity (RS4-11 [30]): Dose-Dependent Effect | Activity [31]: inactive | Activity [32]: Non-Toxic | Activity (RS4-11 [33]): Active | Activity (RS4-11 [34]): Active
